Measurements published in a melting point compilation (Tetko et al.; mined from patent text by program, amines drawn as free bases though some values may be those of a salt).

First: COc1cc(Nc2c(C#N)cnc3cc(-c4ccc(CN(C)C)cc4)sc23)c(Cl)cc1Cl
Second: COc1cc(CNC(=O)c2oc(=O)c3ncccc3c2-c2ccc(C)cc2)cc(OC)c1OC
The melting point of the first is higher: 224 to 225 °C for the first, 195 to 196 °C for the second.

First: CSC1(SC)C(=O)CC2C3CCC4=CC(=O)C=CC4(C)C3(F)C(OC(C)=O)CC21C (stereo not given)
Second: CCC12CCC3C4CCC(=O)C=C4CCC3C1CCC2=O (stereo not given)
The melting point of the first is higher: 225 to 227 °C for the first, 156 to 158 °C for the second.

First: CC(=O)c1cccc(Oc2cccc(-c3cccc(C(=O)NCCC#N)c3)n2)c1
Second: O=C(NCc1cccc([N+](=O)[O-])c1)c1ccccc1
The melting point of the first is higher: 140 to 141 °C for the first, 136 to 138 °C for the second.

First: NC=C(C=O)c1cccc(C(F)(F)F)c1
Second: NS(=O)(=O)c1c(S)cccc1C(F)(F)F
The melting point of the first is lower: 63 to 70 °C for the first, 155 °C for the second.

First: C[Si](C)(Oc1ccc(N)cc1)O[Si](C)(C)Oc1ccc(N)cc1
Second: COc1ccc(Oc2ccc(F)cc2)cc1C#CC(C)N(O)C(N)=O (stereo not given)
The melting point of the first is lower: 56 to 57 °C for the first, 141 to 142 °C for the second.

Compared with `FC(F)(F)c1n[nH]c(Cl)c1Cl`, `On1c(C(F)(F)F)nc2ncc(Cl)cc21` is higher in melting point: 58 to 60 °C for the first, 264 to 266 °C for the second.

Compared with `O=C(NC(=O)c1ccc2ncccc2c1)NC1CCN(Cc2ccc3ncccc3c2)CC1`, `NC(=O)C1CCN(Cc2cnc3cc(NC(=O)c4ccc(-c5ccc(F)cc5)cc4)ccc3c2)CC1` is higher in melting point: 202 to 204 °C for the first, 261 to 265 °C for the second.

First: O=C(Cl)C(OCc1ccc(-c2ccc(Cl)cc2)cc1)(C(F)(F)F)C(F)(F)F
Second: CC(O)c1ccc(-c2ccc(C(F)(F)F)cc2)cc1 (stereo not given)
The melting point of the first is lower: 30 to 35 °C for the first, 116 to 117 °C for the second.

Compared with `Cc1ccc(-n2c(-c3cc(-c4ccc(Cl)cc4)c(N4CCOCC4)s3)nc3ccccc3c2=O)cc1`, `CS(=O)(=O)c1ccc(-n2nc(C(F)(F)F)cc2-c2ccc(C#Cc3ccccc3)cc2)cc1` is lower in melting point: 224 to 226 °C for the first, 170 to 172 °C for the second.

Compared with `O=C1CCSc2cc(Br)ccc21`, `CC(=O)Nc1ccc2c(c1)CCC1CC(=O)NN=C21` (stereo not given) is higher in melting point: 55 to 57 °C for the first, 284 °C for the second.

Compared with `Cc1nc(C)c(-c2ccnc(Nc3cccc(S(=O)(=O)NCCO)c3)n2)s1`, `COc1cc(Nc2nccc(-c3ccc(N4CCN[C@@H](C)C4)nc3)n2)cc(OC)c1OC` is lower in melting point: 184 to 186 °C for the first, 139 to 140 °C for the second.

Going from `CCc1ccc2c(c1)cc(C(=O)Nc1nc(-c3c(OC)cc(C)cc3OC)n(CCC3CCCCC3)n1)n2CC(=O)OC` to `CCN(CC)C(=O)CC1CCN(Cc2cnc3cc(NC(=O)c4ccc(-c5ccc(F)cc5)cc4)c(C)cc3c2)CC1`, the melting point rises from 191 °C to 197 °C.

First: COc1ccc(C(=O)Cc2ncccc2C(=O)O)cc1
Second: COc1ccc(C(=O)Nc2ccccc2)c2c1OCC2CC(=O)O (stereo not given)
The melting point of the first is lower: 158 to 163 °C for the first, 248 to 251 °C for the second.

First: CC(=O)NCCNc1nc(Nc2ccc(Cl)cc2)ncc1[N+](=O)[O-]
Second: OC(CNCCNc1ccccc1Cl)COc1cccc2[nH]ncc12 (stereo not given)
The melting point of the first is higher: 224 to 226 °C for the first, 129 to 130 °C for the second.

First: CCCCOCCOc1ccc(-c2ccc3c(c2)C=C(C(=O)Nc2ccc(SCc4nncn4CCC)c(C)c2)CCN3CC(C)C)cc1
Second: CCCCOCCOc1ccc(-c2ccc3c(c2)C=C(C(=O)O)CCN3c2csc(C)n2)cc1
The melting point of the first is lower: 104 to 107 °C for the first, 155 to 158 °C for the second.

First: CN(C)C(=O)c1cc(O)c2nc(C(F)(F)F)n(C)c2c1
Second: COc1cc(-n2nc(C(F)(F)F)cc2-c2ccc(S(C)(=O)=O)cc2)ccc1Br
The melting point of the first is higher: 243 to 244 °C for the first, 156 to 157 °C for the second.

First: O=C1NC(=O)c2ccccc2/C1=C/Nc1ccc(CN2CCCCC2)cc1
Second: O=C1c2ccccc2C(=O)c2oc(-c3ccccc3F)nc21
The melting point of the first is lower: 185 to 186 °C for the first, greater than 260 °C for the second.

First: CCOC(=O)c1cc2c(C(=O)CN(Cc3ccccc3)C(C)(C)C)ccc(OCc3ccccc3)c2[nH]1
Second: COc1ccc(C(=O)Nc2ccccc2)cc1NS(=O)(=O)c1ccccc1Cl
The melting point of the first is higher: 155 to 157 °C for the first, 107 to 109 °C for the second.

Compared with `CC1CCC(=NNc2ccc([N+](=O)[O-])cc2[N+](=O)[O-])c2ncc(C(=O)O)c(=O)n21` (stereo not given), `Cc1c(NC(=O)c2cc3c(s2)CCCC3)cccc1-c1cc(N)c(=O)n(C)c1` is lower in melting point: 257 to 258 °C for the first, 210 to 211 °C for the second.

First: O=C(NOCC(=O)N1CCCC1C(=O)O)NN1CCCC1C(=O)O (stereo not given)
Second: CC(=O)SCCC(=O)N1c2ccc(C)cc2CCC1C(=O)O (stereo not given)
The melting point of the first is higher: 157 to 160 °C for the first, 118 to 120 °C for the second.

First: CC(C)(C)C(=O)c1[nH]c2cc(Cl)ccc2c1N
Second: NC(=O)c1ccc2[nH]c(=O)oc2c1
The melting point of the first is lower: 132 to 134 °C for the first, 296 °C for the second.

Compared with `CCCc1cc(=O)n2cccc(O)c2n1`, `CCCc1cc(C(O)=S)cc(N)c1C(=O)c1ccccc1` is higher in melting point: 95 to 96 °C for the first, 124 to 126 °C for the second.

First: BrCc1c(Br)c(CBr)c(Br)c(CBr)c1Br
Second: Cc1c(Cl)nc(Cl)nc1Cl
The melting point of the first is higher: 220 to 223 °C for the first, 67 to 68 °C for the second.

Compared with `CC(C)(C)NCC(O)COc1ccc(C(=O)Nc2cccc3[nH]ccc23)cc1` (stereo not given), `Cc1nn(-c2ccc(F)cc2)cc1C(=O)Nc1ccc(OCC(C)(C)C)c(Br)c1` is lower in melting point: 212 °C for the first, 193 to 194 °C for the second.

Compared with `COc1ccc(-c2cc3cc(C4=NNC(=O)CC4)ccc3[nH]2)cc1`, `COc1ccc2c(c1)C(=O)N(c1ccc3ccn(C)c3c1)C2` is lower in melting point: 262 to 264 °C for the first, 158 to 161 °C for the second.

Compared with `CCN(C(=O)C1CC1)c1cccc(-c2ccnc3c(C(=O)c4ccccc4)cnn23)c1`, `CCCCC(=NNC(=O)c1ccccc1)c1ccncc1` is lower in melting point: 153 to 155 °C for the first, 142 °C for the second.

First: COc1ccnc2[nH]cc(C(C)=O)c12
Second: C=CCOc1cc(Cl)ccc1C(=O)OC
The melting point of the first is higher: greater than 210 °C for the first, 47 to 55 °C for the second.

First: CN1CCSC1=C[N+](=O)[O-]
Second: CN(C)CC(C(O)c1ccc([N+](=O)[O-])cc1)N1CCC(Cc2ccccc2)CC1 (stereo not given)
The melting point of the first is higher: 169 to 171 °C for the first, 132 to 135 °C for the second.

Compared with `CC(=O)OC1CSC(Oc2ccc3ncsc3c2)C(OC(C)=O)C1OC(C)=O` (stereo not given), `CCOC(=O)C(C)(C(=O)OCC)c1ccc(N)c(C(C(=O)OC)C(=O)OC)c1` is lower in melting point: 166 °C for the first, 91 to 92 °C for the second.

First: N#CC(=Cc1ccc(C=Cc2ccccc2)cc1)S(=O)(=O)c1ccccc1
Second: O=[N+]([O-])c1ccc2nnn(OS(=O)(=O)c3ccccc3)c2c1
The melting point of the first is higher: 179 to 183 °C for the first, 122 to 124 °C for the second.

First: C=CCSC[C@H](NC(=O)OC(C)(C)C)C(=O)OC
Second: C=CC(C)(O)C=CC1=C(C)C(=O)C(OC(C)(C)OC)CC1(C)C (stereo not given)
The melting point of the first is lower: 37 to 38 °C for the first, 47.5 to 49 °C for the second.

Compared with `C1=C(c2ccc3ccccc3c2)CCC2(C1)CCNCC2`, `Cc1oc(-c2ccccc2)nc1COc1ccc2c(c1)CCC(C=C1SC(=O)NC1=O)=C2` is higher in melting point: 137 to 141 °C for the first, 271 to 272 °C for the second.

Compared with `O=C1c2ccccc2C(=O)N1CCc1ncc(C(F)(F)F)cc1Cl`, `O=C(CCN1C(=O)c2ccccc2C1=O)c1ccccc1C(=O)c1ccc(Cl)cc1Cl` is lower in melting point: 147 to 148 °C for the first, 133 to 134 °C for the second.

First: COc1cc2c(c3c1OC(C)(C)C3)C(c1cccc(SCC(N)=O)c1)=NC(C)(C)C2
Second: COc1cc(CN2CC[C@H](O)C2)ccc1-c1nc2c(N[C@H]3[C@@H](C(N)=O)[C@@H]4C=C[C@H]3C4)c(Cl)cnc2[nH]1
The melting point of the first is lower: 118 to 120 °C for the first, 205 to 208 °C for the second.

First: CCOC(=O)C(C(=O)C(C)C)C1c2nccnc2C(=O)N1c1ccc2ccc(Cl)nc2n1 (stereo not given)
Second: CCOC(=O)C(N=Nc1ccccc1C(=O)c1ccccn1)NC(=O)CCl (stereo not given)
The melting point of the first is higher: 214 °C for the first, 160 to 162 °C for the second.

`O=CC(=C(c1ccc(F)cc1)c1ccc(F)cc1)n1nnnc1-c1ccccc1` and `Cc1sc2nc(-c3ccccc3)c(-c3ccc(S(C)(=O)=O)cc3)n2c1C` fall in the same range of melting point: 193 to 194 °C for the first, 193 to 194 °C for the second.

First: CCCn1cnc2c1c(=O)n(CCCCCC(C)=O)c(=O)n2C
Second: CCCCCCCCCCCCOC(=O)NS(=O)(=O)Cl
The melting point of the first is higher: 69 to 70 °C for the first, 62 to 63 °C for the second.

Compared with `COc1cc2c(c(C(C)C)c1OC)CC(C)C=C2` (stereo not given), `CCOC(=O)Nc1c(OC)cc(CC(C#N)=CNc2ccccc2)cc1OC` is higher in melting point: 56 to 57 °C for the first, 150 to 151 °C for the second.

First: C[Si](C)(CCCc1nnc(N)nc1N)c1ccccc1
Second: CCC1C=C(CCN(O)C(N)=O)c2ccccc21 (stereo not given)
The melting point of the first is higher: 132 to 133 °C for the first, 81 to 83 °C for the second.

First: CCOC(=O)c1cc(Cl)c(-n2nc(CC)c(C(N)=O)c2N)c(Cl)c1
Second: CCOC(=O)N1CCC2(CC1)N=C(N)c1c(F)ccc(Cl)c1N2
The melting point of the first is higher: 194 to 196 °C for the first, 182 to 184 °C for the second.

Compared with `COc1cc(-c2cccc(C=C3SC(N4CCOCC4)=NC3=O)c2)cc(C23CC4CC(CC(C4)C2)C3)c1`, `Cn1c(SCC(=O)C23CC4CC(CC(C4)C2)C3)nnc1C1CC1` is lower in melting point: 234 to 238 °C for the first, 96 to 97.5 °C for the second.

First: CCCCc1nc(Cl)c(COc2ccccn2)n1Cc1ccc(-c2ccccc2-c2nnn[nH]2)cc1
Second: COCCc1nc2c(N)nc3cc(OCc4cccnc4)ccc3c2n1CC(C)(C)O
The melting point of the first is lower: 98 to 100 °C for the first, 200 to 202 °C for the second.

Compared with `O=S1(=O)NCN(C2CC2)c2c1ccc(Br)c2Cl`, `CSC(=S)N1C(CO)Cc2c([nH]c3ccccc23)C1CO` (stereo not given) is higher in melting point: 128 to 131 °C for the first, 179 to 180 °C for the second.

First: CSc1nc(Cc2ccccc2[N+](=O)[O-])n[nH]1
Second: COC(=O)CCCc1nc(Cl)c2c(n1)[nH]c1ccccc12
The melting point of the first is lower: 120 to 132 °C for the first, 258 °C for the second.

First: CCOC(=O)C(C#N)=NOS(=O)(=O)c1ccc(C)cc1
Second: CCOC(=O)Nc1nc(C(=O)C(=O)OC)ns1
The melting point of the first is lower: 84 to 87 °C for the first, 170 to 174 °C for the second.

Compared with `CC(C)[C@H](NCc1ccc(Br)cc1)C(=O)O`, `CCS(=O)(=O)c1ccc(C(=O)NCc2ccc3c(c2)C(=O)N(C2CCC(=O)NC2=O)C3=O)cc1` (stereo not given) is lower in melting point: 239 to 241 °C for the first, 182 to 184 °C for the second.

Compared with `CC(C)CC(CC1CCCCC1)Cn1ccnc1` (stereo not given), `O=S1(=O)CCC(c2ccc(N3CCN(CC(O)(Cn4cncn4)c4ccc(F)cc4F)CC3)cc2)CN1` (stereo not given) is higher in melting point: 119 to 120 °C for the first, 165 to 167 °C for the second.

`Cc1nc(Cl)c(C)c(Cl)c1C` and `Cc1onc(-c2cccc(Cl)c2)c1CO` cannot be ordered by melting point: 67 to 68 °C for the first, 66 to 68 °C for the second.

First: COc1cccc2c1CC(C(=O)NCCOc1ccc(C(=O)OC(C)(C)C)cc1)N2S(=O)(=O)c1ccc(-c2ccc(F)cc2F)cc1 (stereo not given)
Second: Cc1ccccc1NC(=O)NCc1cccc2c1C(=O)N(C1CCC(=O)NC1=O)C2=O (stereo not given)
The melting point of the first is lower: 135 °C for the first, greater than 260 °C for the second.

First: NC1=NS(=O)N=C1NCCCOc1cccc2c(N3CCOCC3)nccc12 (stereo not given)
Second: N[C@@H](CCC(=O)N[C@@H](CS)C(=O)O)C(=O)O
The melting point of the first is higher: 222 to 224 °C for the first, 187 °C for the second.
